Test results from patent publication US20220281821A1, “INDAZOLE COMPOUNDS AND THEIR PHARMACEUTICAL COMPOSITIONS” (Jinan University, priority 2019, published 2022).

Legend:
Format in all cases: cell-based, mouse
BaF3-CD74-NTRK1 = biological target: T1, BaF3-CD74-NTRK1 (Homo sapiens, UniProt P04629); assay: Cell proliferation inhibition (CCK-8), BaF3-CD74-NTRK1 stable strain; details: BaF3-CD74-NTRK1, 72 hours
T1 construct: fused on or other part: P04233 (HLA class II histocompatibility antigen gamma chain)
Description: (§1) The brief steps of stable strain construction are as follows: construct a pCDNA3.1(+) plasmid vector carrying genes such as CD74-NTRK1, ETV6-NTRK2 and ETV6-NTRK3; the plasmid was electroporated into Ba/F3 cells using the Amaxa® Cell Line Nucleofector® Kit V; 48 hours after electroporated, G418 with a final concentration of 1000 μg/ml was added for screening for two weeks, and then IL3 was removed, and continued screening to obtain polyclonal stable strains; then single clones were selected by a limiting dilution method. The stable strains were then identified using positive drugs, WB and gene sequencing; and the monoclonal clones that were identified as completely correct may be used for the study of cell proliferation inhibitory activity of inhibitors.
(§2) Cell proliferation inhibition activity study: the cells in the logarithmic growth phase were seeded into 96-well plates at 8000-12000 cells/well, and inhibitors at different concentrations (0-10 μM) were added the next day, and incubation was continued for 72 hours; then 10 μL of CCK-8 reagent was added to each well, and the incubation was continued for 1-3 hours; and then use a super microplate reader to measure their absorbance values at 450 nm and 650 nm. The half-inhibition concentration (IC50) was calculated using GraphPad Prism 8.0.0.

BaF3-ETV6-NTRK2 = biological target: T2, BaF3-ETV6-NTRK2 (Homo sapiens, UniProt Q16620); assay: Cell proliferation inhibition (CCK-8), BaF3-ETV6-NTRK2 stable strain; details: BaF3-ETV6-NTRK2, 72 hours
T2 construct: fused on or other part: P41212 (Transcription factor ETV6)
Description: as §1, §2

BaF3-ETV6-NTRK3 = biological target: T3, BaF3-ETV6-NTRK3 (Homo sapiens, UniProt Q16288); assay: Cell proliferation inhibition (CCK-8), BaF3-ETV6-NTRK3 stable strain; details: BaF3-ETV6-NTRK3, 72 hours
T3 construct: fused on or other part: P41212 (Transcription factor ETV6)
Description: as §1, §2

T3 sequence (Q16288 whole entry, the tested form may be a part): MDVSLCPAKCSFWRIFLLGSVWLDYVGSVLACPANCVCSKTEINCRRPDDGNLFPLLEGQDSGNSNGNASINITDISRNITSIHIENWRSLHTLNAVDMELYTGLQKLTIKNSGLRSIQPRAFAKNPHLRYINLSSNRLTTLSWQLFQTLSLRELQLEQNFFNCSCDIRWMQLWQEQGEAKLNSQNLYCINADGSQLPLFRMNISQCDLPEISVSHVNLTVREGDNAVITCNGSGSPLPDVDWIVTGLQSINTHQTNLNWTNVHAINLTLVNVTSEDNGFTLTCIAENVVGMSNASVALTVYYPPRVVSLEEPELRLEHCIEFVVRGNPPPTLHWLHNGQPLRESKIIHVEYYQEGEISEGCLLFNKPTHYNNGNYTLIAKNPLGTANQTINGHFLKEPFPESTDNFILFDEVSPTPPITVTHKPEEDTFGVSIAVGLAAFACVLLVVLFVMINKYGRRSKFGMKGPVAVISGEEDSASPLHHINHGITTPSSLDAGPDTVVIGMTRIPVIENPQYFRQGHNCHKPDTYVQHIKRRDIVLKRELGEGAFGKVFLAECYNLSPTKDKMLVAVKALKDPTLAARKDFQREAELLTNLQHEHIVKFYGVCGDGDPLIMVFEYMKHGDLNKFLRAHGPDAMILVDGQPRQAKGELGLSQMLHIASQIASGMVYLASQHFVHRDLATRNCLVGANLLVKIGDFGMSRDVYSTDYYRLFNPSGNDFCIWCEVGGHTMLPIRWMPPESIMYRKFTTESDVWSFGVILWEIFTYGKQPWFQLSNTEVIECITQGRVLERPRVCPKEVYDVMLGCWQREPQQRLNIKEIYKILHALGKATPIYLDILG
T2 sequence (Q16620 538-822 limits assumed): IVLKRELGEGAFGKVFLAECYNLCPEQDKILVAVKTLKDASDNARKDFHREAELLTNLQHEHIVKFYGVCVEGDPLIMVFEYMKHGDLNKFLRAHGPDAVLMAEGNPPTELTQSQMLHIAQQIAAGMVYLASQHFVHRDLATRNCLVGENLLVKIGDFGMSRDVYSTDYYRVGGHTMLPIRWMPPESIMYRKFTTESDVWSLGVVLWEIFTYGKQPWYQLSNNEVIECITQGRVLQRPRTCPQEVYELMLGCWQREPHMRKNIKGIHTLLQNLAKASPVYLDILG
T1 sequence (P04629 510-796 limits assumed): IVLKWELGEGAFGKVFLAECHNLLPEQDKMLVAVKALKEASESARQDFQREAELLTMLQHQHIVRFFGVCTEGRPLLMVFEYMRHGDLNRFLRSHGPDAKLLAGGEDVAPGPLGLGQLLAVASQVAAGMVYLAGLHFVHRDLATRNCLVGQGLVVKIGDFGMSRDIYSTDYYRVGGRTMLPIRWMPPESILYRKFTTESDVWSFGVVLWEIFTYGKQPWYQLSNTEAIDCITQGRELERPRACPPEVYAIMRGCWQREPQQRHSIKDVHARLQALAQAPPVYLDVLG

| SMILES | IC50 (BaF3-CD74-NTRK1) | IC50 (BaF3-ETV6-NTRK2) | IC50 (BaF3-ETV6-NTRK3) |
| --- | --- | --- | --- |
| Cc1ccccc1/C=C/c1n[nH]c2ccc(Cc3cc(F)cc(F)c3)cc12 [Example D01F08, (E)-5-(3,5-difluorobenzyl)-3-(2-methylstyryl)-1H-indazole] | 112 nM | 400 nM | 158 nM |
| Fc1cc(F)cc(Cc2ccc3[nH]nc(/C=C/c4ccccc4C(F)(F)F)c3c2)c1 [Example D01F11] | 12.9 nM | 159 nM | 25.6 nM |
| Fc1cc(Cl)cc(Cc2ccc3[nH]nc(/C=C/c4ccccn4)c3c2)c1 [Example D02F01, (E)-5-(3-chloro-5-fluorobenzyl)-3-(2-(pyridin-2-yl)vinyl)-1H-indazole] | 204 nM | 362 nM | 151 nM |
| COc1cc(F)cc(Cc2ccc3[nH]nc(/C=C/c4ccccn4)c3c2)c1 [Example D05F01, (E)-5-(3-fluoro-5-methoxybenzyl)-3-(2-(pyridin-2-yl)vinyl)-1H-indazole] | 203 nM | 462 nM | 367 nM |
| Clc1cc(Cl)cc(Cc2ccc3[nH]nc(/C=C/c4ccccn4)c3c2)c1 [Example D06F01, (E)-5-(3,5-dichlorobenzyl)-3-(2-(pyridin-2-yl)vinyl)-1H-indazole] | 564 nM | > 10000 nM | 851 nM |
| Cc1cc(C)cc(Cc2ccc3[nH]nc(/C=C/c4ccccn4)c3c2)c1 [Example D07F01, (E)-5-(3,5-dimethylbenzyl)-3-(2-(pyridin-2-yl)vinyl)-1H-indazole] | 2310 nM | 3020 nM | 2040 nM |
| COc1ccc(F)cc1Cc1ccc2[nH]nc(/C=C/c3ccccn3)c2c1 [Example D09F01, (E)-5-(5-fluoro-2-methoxybenzyl)-3-(2-(pyridin-2-yl)vinyl)-1H-indazole] | 40.6 nM | 56.1 nM | 18.1 nM |
| O=S(=O)(c1cc(F)cc(F)c1)c1ccc2[nH]nc(/C=C/c3ccncc3)c2c1 [Example E01F02, (E)-5-((3,5-difluorophenyl)sulfonyl)-3-(2-(pyridin-4-yl)vinyl)-1H-indazole] | 18.9 nM | 133 nM | 40.7 nM |
| O=S(=O)(c1cc(F)cc(F)c1)c1ccc2[nH]nc(/C=C/c3ccccc3)c2c1 [Example E01F07, (E)-5-((3,5-difluorophenyl)sulfonyl)-3-styryl-1H-indazole] | 35.8 nM | 441 nM | 92.9 nM |
| Cc1ccccc1/C=C/c1n[nH]c2ccc(S(=O)(=O)c3cc(F)cc(F)c3)cc12 [Example E01F08, (E)-5-((3,5-difluorophenyl)sulfonyl)-3-(2-methylstyryl)-1H-indazole] | 43.8 nM | 220 nM | 82.9 nM |

Second part, the compound after the results:

| IC50 (BaF3-CD74-NTRK1) | IC50 (BaF3-ETV6-NTRK2) | IC50 (BaF3-ETV6-NTRK3) | SMILES |
| --- | --- | --- | --- |
| 6.5 nM | 9.5 nM | 3.1 nM | C[C@@H](Nc1ccc2[nH]nc(/C=C/c3cnn(C)c3)c2c1)c1cc(F)cc(F)c1 [DYX-346, (R,E)-N-(1-(3,5-difluorophenyl)ethyl)-3-(2-(1-methyl-1H-pyrazol-4-yl)vinyl)-1H-indazol-5-amine] |
| 7.4 nM | 10.7 nM | 4.3 nM | CCn1cc(/C=C/c2n[nH]c3ccc(N[C@H](C)c4cc(F)cc(F)c4)cc23)cn1 [DYX-349, (R,E)-N-(1-(3,5-difluorophenyl)ethyl)-3-(2-(1-ethyl-1H-pyrazol-4-yl)vinyl)-1H-indazol-5-amine] |
| 59 nM | 154 nM | 41.1 nM | Fc1cc(Cl)cc(CNc2ccc3[nH]nc(/C=C/c4ccccn4)c3c2)c1 [DYX-400, (E)-N-(3-fluoro-5-chlorobenzyl)-3-(2-(pyridin-2-yl)vinyl)-1H-indazol-5-amine] |
| 113 nM | 448 nM | 112 nM | Cc1cc(F)cc(CNc2ccc3[nH]nc(/C=C/c4ccccn4)c3c2)c1 [DYX-401, (E)-N-(3-fluoro-5-methylbenzyl)-3-(2-(pyridin-2-yl)vinyl)-1H-indazol-5-amine] |
| 28.2 nM | 53.5 nM | 22.6 nM | N#Cc1cc(F)cc(CNc2ccc3[nH]nc(/C=C/c4ccccn4)c3c2)c1 [DYX-402, (E)-3-fluoro-5-(((3-(2-(pyridin-2-yl)vinyl)-1H-indazol-5-yl)amino)methyl)benzonitrile] |
| 52.6 nM | 137 nM | 180 nM | COc1cc(F)cc(CNc2ccc3[nH]nc(/C=C/c4ccccn4)c3c2)c1 [DYX-403, (E)-N-(3-fluoro-5-methoxybenzyl)-3-(2-(pyridin-2-yl)vinyl)-1H-indazol-5-amine] |
| 6.4 nM | 36.9 nM | 7.7 nM | C[C@@H](Nc1ccc2[nH]nc(/C=C/c3cccnc3)c2c1)c1cc(F)cc(F)c1 [DYX-409, (R,E)-N-(1-(3,5-difluorophenyl)ethyl)-3-(2-(pyridin-3-yl)vinyl)-1H-indazol-5-amine] |
| 10.3 nM | 11.7 nM | 3.5 nM | C[C@@H](Nc1ccc2[nH]nc(/C=C/c3ccncc3)c2c1)c1cc(F)cc(F)c1 [DYX-410, (R,E)-N-(1-(3,5-difluorophenyl)ethyl)-3-(2-(pyridin-4-yl)vinyl)-1H-indazol-5-amine] |
| 35.7 nM | 38 nM | 11 nM | C[C@@H](Nc1ccc2[nH]nc(/C=C/c3cnccn3)c2c1)c1cc(F)cc(F)c1 [DYX-411, (R,E)-N-(1-(3,5-difluorophenyl)ethyl)-3-(2-(pyrazin-2-yl)vinyl)-1H-indazol-5-amine] |
| 110 nM | 115 nM | 35.6 nM | C[C@@H](Nc1ccc2[nH]nc(/C=C/c3ccccc3)c2c1)c1cc(F)cc(F)c1 [DYX-412, (R,E)-N-(1-(3,5-difluorophenyl)ethyl)-3-styryl-1H-indazol-5-amine] |
| 40.8 nM | 376 nM | 161 nM | Fc1ccccc1CNc1ccc2[nH]nc(/C=C/c3ccccn3)c2c1 [DYX-413, (E)-N-(2-fluorobenzyl)-3-(2-(pyridin-2-yl)vinyl)-1H-indazol-5-amine] |
| 196 nM | 2520 nM | 1180 nM | Fc1cc(CNc2ccc3[nH]nc(/C=C/c4ccccn4)c3c2)cc(C(F)(F)F)c1 [DYX-414, (E)-N-(3-fluoro-5-(trifluoromethyl)benzyl)-3-(2-(pyridin-2-yl)vinyl)-1H-indazol-5-amine] |
| 50.8 nM | 510 nM | 156 nM | Fc1cc(Br)cc(CNc2ccc3[nH]nc(/C=C/c4ccccn4)c3c2)c1 [DYX-415, (E)-N-(3-bromo-5-fluorobenzyl)-3-(2-(pyridin-2-yl)vinyl)-1H-indazol-5-amine] |
| 21 nM | 88.7 nM | 34.3 nM | Fc1ccc(Cl)c(CNc2ccc3[nH]nc(/C=C/c4ccccn4)c3c2)c1 [DYX-416, (E)-N-(2-chloro-5-fluorobenzyl)-3-(2-(pyridin-2-yl)vinyl)-1H-indazol-5-amine] |
| 158 nM | 2530 nM | 579 nM | Fc1ccc(CNc2ccc3[nH]nc(/C=C/c4ccccn4)c3c2)cc1 [DYX-417, (E)-N-(4-fluorobenzyl)-3-(2-(pyridin-2-yl)vinyl)-1H-indazol-5-amine] |
| 7.6 nM | 41 nM | 16.2 nM | COc1ccc(F)cc1CNc1ccc2[nH]nc(/C=C/c3ccccn3)c2c1 [DYX-418, (E)-N-(5-fluoro-2-methoxybenzyl)-3-(2-(pyridin-2-yl)vinyl)-1H-indazol-5-amine] |
| 2.4 nM | 11.9 nM | 4 nM | Fc1cncc(CNc2ccc3[nH]nc(/C=C/c4ccccn4)c3c2)c1 [DYX-419, (E)-N-((5-fluoropyridin-3-yl)methyl)-3-(2-(pyridin-2-yl)vinyl)-1H-indazol-5-amine] |
| 90.9 nM | 171 nM | 125 nM | Cn1cc(/C=C/c2n[nH]c3ccc(NS(=O)(=O)c4cc(F)cc(F)c4)cc23)cn1 [Example D5217, (E)-3,5-difluoro-N-(3-(2-(1-methyl-1H-pyrazol-4-yl)vinyl)-1H-indazol-5-yl)benzenesulfonamide] |
| 10.6 nM | 19.1 nM | 14.1 nM | CCn1cc(/C=C/c2n[nH]c3ccc(NS(=O)(=O)c4cc(F)cc(F)c4)cc23)cn1 [Example D5218, (E)-3,5-difluoro-N-(3-(2-(1-ethyl-1H-pyrazol-4-yl)vinyl)-1H-indazol-5-yl)benzenesulfonamide] |
| 120 nM | 215 nM | 175 nM | O=S(=O)(Nc1ccc2[nH]nc(/C=C/c3cn[nH]c3)c2c1)c1cc(F)cc(F)c1 [Example D5220, (E)-3,5-difluoro-N-(3-(2-(1H-pyrazol-4-yl)vinyl)-1H-indazol-5-yl)benzenesulfonamide] |
| 144 nM | 196 nM | 128 nM | O=S(=O)(Nc1ccc2[nH]nc(/C=C/c3cnn(CCO)c3)c2c1)c1cc(F)cc(F)c1 [Example D5221, (E)-3,5-difluoro-N-(3-{2-[1-(2-hydroxyl-ethyl)-1H-pyrazol-4-yl]-vinyl}-1H-indazol-5-yl)-benzenesulfonamide] |
